Laboratory results reported in publication PMC12534982 (Journal of Experimental & Clinical Cancer Research : CR, 2025).

Tests used:
[1] = tested on: colorectal cancer cells; assay: RT-qPCR; type: cell-based, human; conditions: 25 µM, 48 h
Protocol: Cancer cells (0.8 × 10^6) were cultured in 60-mm Petri dishes and treated for 48 h with DMSO or NK-A 17E-233I (25 µM). The pellets were collected, and the total RNA was isolated using TRI Reagent Solution (#T9424; Sigma-Aldrich). The concentration and purity of RNA samples were assessed using a Nanodrop (Nanodrop ND-1000 spectrophotometer, Thermo Fisher) and stored at -80°C. Complementary DNA (cDNA) was generated using MultiScribe Reverse Transcriptase (#A25776; ThermoFisher Scientific), and the resulting cDNA was diluted and analyzed by qPCR using the StepOnePlus Real-Time PCR System (Applied Biosystems) with Power UP SYBR Green Master Mix (#A25741; ThermoFisher Scientific). β-actin was used as the endogenous control gene, and the fold change was calculated using the 2^−ΔΔCT method. Data processing was conducted using StepOnePlus Software for Windows, v2.3. All primer sequences were designed using the Primer 3 Plus software, validated by the Primer-BLAST tool, and submitted to Integrated DNA Technologies (IDT, Madrid, Spain). The primer sequences utilized in this study are listed below: […]

[2] = tested on: SW620 cells; assay: Complex I- and complex II-dependent respiration (permeabilized cells); type: cell-based, human; conditions: 25 µM, 24 h
Protocol: Following treatment, cells were detached using trypsin–EDTA, washed with PBS, and resuspended in MiR05 media (composed of 110 mM sucrose, 60 mM potassium-lactobionate, 0.5 mM EGTA, 3 mM MgCl2·6H2O, 20 mM taurine, 10 mM KH2PO4, 20 mM HEPES adjusted to pH 7.1 with KOH at 37 °C, and 1 g/L BSA) at a concentration of 5 × 10^5 cells/mL. The cells were then transferred into 2 mL Oxygraph chambers for real-time measurement of OCR. Initial permeabilization was achieved using 7 μg of digitonin, followed by the sequential addition of substrates and inhibitors: 5 mM ADP, 2 mM malate, 10 μM cytochrome c, 5 mM pyruvate, 10 mM glutamate, 10 mM succinate, 0.5 μM rotenone, and 2.5 μM antimycin A. Mitochondrial membrane integrity was confirmed through the addition of cytochrome c (10 μM), with observed changes in OCR remaining below 10%. Complex I-mediated respiration was evaluated following the addition of complex I substrates (malate/pyruvate/glutamate), while complex II-mediated respiration was assessed in the presence of the complex II substrate (succinate) and the complex I inhibitor (rotenone). Residual oxygen consumption after the addition of antimycin A was subtracted from all the results to yield mitochondria-specific rates. […] Oxygen consumption rates were expressed as picomoles (pmol) per second per million cells (Mill) and normalized to the mitochondrial copy number in each sample.

[3] = tested on: colorectal cancer cells; assay: Flow cytometry-based cell cycle analysis; parameters: species or system human
Protocol: Cancer cells (3 × 10^4) were cultured in 48-well plates and treated with DMSO or NK-A 17E-233I (25 µM) for 24 h. Following treatment, all wells were washed with PBS (#P4417; Sigma-Aldrich), and the cells were collected in Eppendorf tubes. The cells were harvested using 0.25% trypsin (#25200056; ThermoScientific) and 0.02% EDTA (1:1) (#17892; ThermoFisher Scientific) for 2 min, followed by the addition of DMEM. The tubes were then centrifuged at 500 × g for 5 min. The supernatant was discarded, and the pellets were fixed in 70% cold ethanol and stored at -20 °C for at least 1 h. The pellets were resuspended in 1 mL PBS and centrifuged at 500 × g at 4 °C for 5 min. The supernatant was discarded once again, and the pellets were subsequently reconstituted in a solution containing propidium iodide (PI; #25,535–16-4, Merck) and RNase (#N8080119, Applied Biosystems), followed by storage at 4 °C overnight. Cell cycle analysis was conducted using a CytoFLEX flow cytometer (Beckman Coulter; 405 nm laser). Cells were gated based on size and granularity on a forward scatter (FSC)/side scatter (SSC) plot, with cell debris excluded from the analysis. Mean fluorescence intensity from 1 × 10^4 cells was recorded. Data analysis was conducted using FlowJo software v10.8.1 (BD Life Sciences).

[4] = tested on: cell lines from other cancer types (osteosarcoma, breast, lung); assay: Cell morphology studies (brightfield); type: cell-based, human; conditions: 25 µM, 48 h
Source text: Brightfield images were captured using a Leica DMi8 microscope with a 10X or 20X objective (HC PL FLUOTAR 10X/0.45 or 20X/0.75) equipped with a Leica DFC9000GT camera, and processed with a Leica Application Suite X (LAS X) Life Science Microscope Software (v3.5.5.19976, RRID:SCR_013673).

[5] = tested on: tumor-derived intestinal organoids; assay: Organoid viability (CellTiter-Glo 3D); type: cell-based, human; conditions: 96 h
[6] = tested on: FBS-starved cancer cells; assay: Serum starvation of cancer cells (CellTiter-Glo); type: cell-based, human; conditions: 25 µM, 24 h, FBS-free
Protocol: Cancer cells (7.5 × 10^3) were cultured in a 96-well plate in DMEM (fortified with 10% FBS) for 24 h. Subsequently, the cells were subjected to serum starvation (FBS-free DMEM) and treated with either DMSO or NK-A 17E-233I (25 µM) for an additional 24 h. Cell proliferation was measured using the CellTiter-Glo reagent as previously described.

[7] = target: T1, Δ29 DHODH (N-truncated) (Homo sapiens, UniProt Q02127); assay: In vitro DHODH enzyme activity assay; type: biochemical; conditions: 1 mM DHO
T1 construct: N-terminal truncated form of human DHODH (Δ29), where the N-terminal transmembrane domain was removed; made in house
Protocol: (§1) The assays to determine the inhibition constants of inhibitors of the recombinant DHODH enzymes are described in [28, 29].
(§2) The IC50 values were determined by fitting the equation V = V max/(1 + (I/IC50)^h) to the assay data using SigmaPlot14 (Systat Software Inc.). In this equation, V represents the measured enzyme activity, while V max indicates the maximum enzyme activity reached. I denotes the inhibitor concentration, and h describes the slope of the fitted curve.

[8] = target: T2, DHODH R136C (Homo sapiens, UniProt Q02127, R135C); assay: In vitro DHODH enzyme activity assay; type: biochemical; conditions: 1 mM DHO
T2 construct: made in house
Protocol: as §1, §2

[9] = target: T3, recombinant human DHODH (full-length wild-type) (Homo sapiens, UniProt Q02127); assay: In vitro DHODH enzyme activity assay; type: biochemical; conditions: for IC50: 0.1 mM QD, mean ± SD (n = 4–6); for Ki: assuming pure competitive inhibition
T3 construct: The generation of recombinant enzymes (full-length wild-type); made in house
Protocol: as §1, §2

T3 sequence (Q02127 whole entry): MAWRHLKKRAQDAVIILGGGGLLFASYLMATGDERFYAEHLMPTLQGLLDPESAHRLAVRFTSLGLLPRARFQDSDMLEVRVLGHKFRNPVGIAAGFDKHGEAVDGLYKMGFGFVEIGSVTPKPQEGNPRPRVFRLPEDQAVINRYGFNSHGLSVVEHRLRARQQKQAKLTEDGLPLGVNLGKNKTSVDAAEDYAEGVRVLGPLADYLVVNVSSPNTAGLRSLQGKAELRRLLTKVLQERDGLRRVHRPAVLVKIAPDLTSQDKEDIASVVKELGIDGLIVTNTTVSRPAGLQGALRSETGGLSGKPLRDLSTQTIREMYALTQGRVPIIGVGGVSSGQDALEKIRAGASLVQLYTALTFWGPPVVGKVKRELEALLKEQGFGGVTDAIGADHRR
T2 sequence (Q02127 whole entry R135C): as the sequence (Q02127 whole entry) above, with R135C counted along it
T1 sequence (Q02127 29-395, stated change not applied): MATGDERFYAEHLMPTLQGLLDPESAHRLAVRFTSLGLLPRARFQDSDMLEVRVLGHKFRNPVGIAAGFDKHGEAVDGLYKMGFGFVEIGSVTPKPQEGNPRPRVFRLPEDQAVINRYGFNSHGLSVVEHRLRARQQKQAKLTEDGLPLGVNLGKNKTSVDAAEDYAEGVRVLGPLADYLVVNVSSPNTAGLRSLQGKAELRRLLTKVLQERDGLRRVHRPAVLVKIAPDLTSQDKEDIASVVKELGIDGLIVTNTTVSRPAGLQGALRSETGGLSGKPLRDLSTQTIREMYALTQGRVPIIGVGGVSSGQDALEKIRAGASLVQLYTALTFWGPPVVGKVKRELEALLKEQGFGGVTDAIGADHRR

COc1cc(C)c(Oc2cc(C)cc(O)c2O)c(O)c1 [NK-A 17E-233I]
mRNA expression levels of POLD1 and POLD2 [1]: reductions
OCR supported by complex I and II substrates [2]: did not alter
cell cycle distribution ([3]; 25 µM): arrest of colorectal cancer cells in the S-phase and an increase in sub-G1 cell populations
cell cycle after washout ([3]; washout 12 h, NK-A 17E-233I 25 µM, HU 1 mM): remained arrested and/or underwent cell death
cytotoxic effects [4]: cytotoxic effects
sensitivity of tumor-derived organoids [5]: demonstrated sensitivity to NK-A 17E-233I in a dose-dependent manner
effect on starved cancer cells [6]: no significant effect
IC50 ([7]; mean ± SD (n = 3)): 99.1 ± 47.8 µM
average of the fitted slopes ([7]; ± SD): 1 ± 0.8
IC50 ([8]; mean ± SD (n = 3)): 48.6 ± 30.8 µM
average of the fitted slopes ([8]; ± SD): 0.6 ± 0.2
mode of inhibition with respect to DHO [9]: competitive inhibitor
IC50 ([9]; 0.1 mM DHO): 28.9 ± 14.5 µM
IC50 ([9]; 1 mM DHO): 98.3 ± 42.6 µM
fold increase in the IC50 value with increasing concentrations of DHO ([9]; 1 mM vs 0.1 mM DHO): 3.4 fold
Ki ([9]; derived from the IC50 at 0.1 mM DHO): 3.9 µM
Ki ([9]; derived from the IC50 at 1 mM DHO): 1.5 µM
